One compound from article PMC7875539 (Science Advances, 2021) can be followed below.

Holding throughout (conditions): 100 mM KCl, 5 mM MgCl2, 20 mM Hepes pH 7.5, 25 °C; CBS domain nucleotide site
In experiment [1] the target is TpCorC CBS domain (Thermus parvatiensis, UniProt A0A109QFA5, Y255A).
Experiment [2] deals with TpCorC CBS domain (Thermus parvatiensis, UniProt A0A109QFA5, T336I).
Experiment [3] has as its target TpCorC CBS domain (Thermus parvatiensis, UniProt A0A109QFA5).

Molecules are shown by their SMILES.

Chain of TpCorC CBS domain (Thermus parvatiensis, UniProt A0A109QFA5, T336I) (A0A109QFA5 202-361 T336I limits assumed): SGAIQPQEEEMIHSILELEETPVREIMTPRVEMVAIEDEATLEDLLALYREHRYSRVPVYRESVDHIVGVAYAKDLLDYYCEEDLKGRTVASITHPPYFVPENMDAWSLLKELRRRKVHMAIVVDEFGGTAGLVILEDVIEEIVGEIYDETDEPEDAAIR
Chain of TpCorC CBS domain (Thermus parvatiensis, UniProt A0A109QFA5) (A0A109QFA5 202-361 limits assumed): as the sequence (A0A109QFA5 202-361 T336I limits assumed) above, with I135T counted along it
Chain of TpCorC CBS domain (Thermus parvatiensis, UniProt A0A109QFA5, Y255A) (A0A109QFA5 202-361 Y255A limits assumed): as the sequence (A0A109QFA5 202-361 T336I limits assumed) above, with Y54A, I135T counted along it

Turning to `Nc1ncnc2c1ncn2[C@@H]1O[C@H](COP(=O)(O)OP(=O)(O)OP(=O)(O)O)[C@@H](O)[C@H]1O` [ATP], the results for the Kd in experiment [1], in experiment [2] and in experiment [3] were 2800 nM, 9400 nM and 460 nM, respectively.
